The nature of data set [1]: Cytotoxicity against LPS-stimulated mouse BV2 cells assessed as cell viability at 20 uM by MTT assay relative to control. The data set is classed as cell-based, BV-2. To be noted: read-out: Activity.
A short description of data set [2]: Antineuroinflammatory activity in mouse BV2 cells assessed as inhibition of LPS-induced nitric oxide production after 24 hrs by Griess assay. Type of data set: functional, cell-based. The following applies: BV-2, 24 h.

Our source for the viability and IC50 values is ChEMBL document CHEMBL3751724, “Bioactive lignan derivatives from the stems of Firmiana simplex” (Bioorg Med Chem Lett, 2016).

Structures are written as SMILES.

For `COc1cc(/C=C/CO)ccc1O[C@H](CO)[C@@H](O)c1cc(OC)c(O)c(OC)c1` (relative stereo), the viability at 20 µM in data set [1] is 123%. The IC50 in data set [2] stood at 9.14 µM.

On to `COc1cc([C@@H]2OC[C@@H]3[C@H]2CO[C@H]3c2ccc(O)c(OC)c2)ccc1O` [(+)-PINORESINOL], for which, in data set [1], the viability at 20 µM was determined as 115%. Besides, the concentration for half-maximal inhibition (IC50) in data set [2] was determined as 25.1 µM.

Regarding `COc1cc(C(O)C(CO)Oc2c(OC)cc([C@@H]3OC[C@@H]4[C@H]3CO[C@H]4c3ccc(O)c(OC)c3)cc2OC)ccc1O` (stereo partly drawn), the viability at 20 µM in data set [1] stood at 121%. For the same compound, the IC50 in data set [2] is 19.3 µM.

Turning to `COc1cc([C@@H](O)[C@@H](CO)Oc2c(OC)cc(/C=C/CO)cc2OC)ccc1O` (relative stereo), in data set [1], the viability at 20 µM was found to be 120%. Further, in data set [2], the half-maximal inhibitory concentration (IC50) stood at 23.5 µM.

Consider `COc1cc([C@H](O)[C@@H](CO)Oc2ccc(/C=C/C=O)cc2OC)ccc1O`, for which the viability at 20 µM in data set [1] was 129%. Also, the IC50 in data set [2] was determined as 0.929 µM.

In the case of `COc1cc([C@@H](O)[C@@H](CO)Oc2ccc(/C=C/C=O)cc2OC)ccc1O`, in data set [1], the viability at 20 µM was 123%. In addition, the IC50 in data set [2] amounted to 1.05 µM.

For `COc1cc([C@@H](O)[C@@H](CO)Oc2ccc(C=O)cc2OC)ccc1O` (relative stereo), the viability at 20 µM in data set [1] came out at 116%. Also, in data set [2], the IC50 came out at 47.6 µM.

In the case of `COc1cc([C@@H]2Oc3c(OC)cc(/C=C/C=O)cc3[C@H]2CO)ccc1O`, the viability at 20 µM in data set [1] came to 115%. In addition, the half-maximal inhibitory concentration (IC50) in data set [2] was found to be 7.07 µM.

`COc1cc(C(O)C(CO)Oc2c(OC)cc([C@@H]3Oc4c(OC)cc(/C=C/C=O)cc4[C@H]3CO)cc2OC)ccc1O` (stereo partly drawn): the viability at 20 µM in data set [1] stood at 129%. The 50% inhibitory concentration (IC50) in data set [2] amounted to 15.3 µM.

In the case of `COc1cc([C@@H](O)[C@@H](CO)Oc2ccc(/C=C/CO)cc2OC)ccc1O` (relative stereo), the viability at 20 µM in data set [1] amounted to 117%. The concentration for half-maximal inhibition (IC50) in data set [2] came to 32.6 µM.

In the case of `COc1cc([C@@H](O)[C@H](CO)Oc2c(OC)cc([C@@H]3OC[C@H]4[C@H](c5ccc(O)c(OC)c5)OC[C@@]34O)cc2OC)ccc1O`, the viability at 20 µM in data set [1] turned out to be 108%. Moreover, in data set [2], the IC50 was more than 500 µM.

For `COc1cc([C@@H]2Oc3c(OC)cc(/C=C/C=O)cc3[C@H]2CO)cc(OC)c1O`, the viability at 20 µM in data set [1] came to 120%. In addition, the IC50 in data set [2] worked out at 10 µM.

In the case of `COc1cc(C(OC)[C@H]2CO[C@H](c3ccc(O)c(OC)c3)[C@H]2CO)ccc1O` (stereo partly drawn), the viability at 20 µM in data set [1] stood at 115%. The IC50 in data set [2] amounted to 33 µM.

In the case of `COc1cc([C@@H]2OC[C@@H]3[C@H]2CO[C@H]3c2cc(OC)c(O)c(OC)c2)cc(OC)c1O`, the viability at 20 µM in data set [1] was determined as 110%. In data set [2], the IC50 turned out to be 27.5 µM.

As to `COc1cc([C@@H]2OC[C@@H]3[C@H]2CO[C@H]3c2ccc3c(c2)OCO3)ccc1O` [PIPERITOL], in data set [1], the viability at 20 µM was 113%. The 50% inhibitory concentration (IC50) in data set [2] is 32.6 µM.

On to `Oc1ccc([C@@H]2OC[C@H]3[C@H](c4ccc5c(c4)OCO5)OC[C@@]23O)cc1`, for which the viability at 20 µM in data set [1] worked out at 109%. In addition, in data set [2], the half-inhibitory concentration (IC50) was 35.4 µM.

Take `c1cc2c(cc1[C@@H]1OC[C@@H]3[C@H]1CO[C@H]3c1ccc3c(c1)OCO3)OCO2`: in data set [1], the viability at 20 µM stood at 126%. Moreover, the IC50 in data set [2] worked out at 26.3 µM.

On to `COc1cc([C@H]2OC[C@H]3[C@@H]2CO[C@@H]3c2ccc(O)c(OC)c2)ccc1O`, for which the viability at 20 µM in data set [1] amounted to 111%. Besides, the half-maximal inhibitory concentration (IC50) in data set [2] amounted to 31.1 µM.

`COc1cc([C@@H]2OC[C@@]3(O)[C@H](c4ccc5c(c4)OCO5)OC[C@@H]23)ccc1O` (relative stereo): the viability at 20 µM in data set [1] was determined as 108%. The IC50 in data set [2] is more than 500 µM.
